According to patent US20260297542A1, “HERBICIDE RESISTANT PLANTS” (SYNGENTA CROP PROTECTION AG, priority 2023, published 2026):
Substitutions are numbered along the chain they refer to.

Experiments:
Experiment in all cases: E. coli hemG growth inhibition by herbicide, AtPPO1 variant
Assay type in all cases: cell-based
Details in all cases: read-out: percentage growth inhibition
AtPPO1 E111D = target: T1, AtPPO1 E111D (Arabidopsis thaliana, UniProt P55826, E111D)
T1 construct: expressed in transfected cells; host or cells: E. coli BL21(DE3) hemG (hemG replaced by CmR), pET24a plasmid
T1 sequence (P55826 35-537 E111D): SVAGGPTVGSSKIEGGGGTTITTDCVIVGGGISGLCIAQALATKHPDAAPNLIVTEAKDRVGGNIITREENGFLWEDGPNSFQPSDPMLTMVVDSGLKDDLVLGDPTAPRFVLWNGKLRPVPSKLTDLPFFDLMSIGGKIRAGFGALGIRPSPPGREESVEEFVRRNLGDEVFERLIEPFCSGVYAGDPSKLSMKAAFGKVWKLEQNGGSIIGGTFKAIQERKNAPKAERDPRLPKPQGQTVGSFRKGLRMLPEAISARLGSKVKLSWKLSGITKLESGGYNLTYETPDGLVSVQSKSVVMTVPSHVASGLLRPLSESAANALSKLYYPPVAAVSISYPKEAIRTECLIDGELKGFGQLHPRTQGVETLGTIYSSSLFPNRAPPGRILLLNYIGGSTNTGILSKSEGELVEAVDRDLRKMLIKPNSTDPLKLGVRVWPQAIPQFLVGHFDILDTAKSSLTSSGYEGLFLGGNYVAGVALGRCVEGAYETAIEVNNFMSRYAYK
How it was run: (§1)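 Variant plasmids were transformed into hemG-null BL21(DE3) and precultured 24 h with hematin. Washed cells were diluted 1:100 into Terrific broth containing 0.1 mM IPTG and herbicide (6.25 ppm 0 or E; 0.78 ppm B) or DMSO. After 24 h at 37° C, OD600 gave percent inhibition.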

AtPPO1 Y362F = target: T2, AtPPO1 Y362F (Arabidopsis thaliana, UniProt P55826, Y362F)
T2 construct: expressed in transfected cells; host or cells: E. coli BL21(DE3) hemG (pET24a, T7 promoter)
T2 sequence (P55826 35-537 Y362F): T1 sequence (P55826 35-537 E111D) with D77E, Y328F
How it was run: as §1

AtPPO1 Q272H = target: T3, AtPPO1 Q272H (Arabidopsis thaliana, UniProt P55826, Q272H)
T3 construct: expressed in transfected cells; host or cells: E. coli BL21(DE3) hemG (hemG replaced by CmR), pET24a plasmid
T3 sequence (P55826 35-537 Q272H): T1 sequence (P55826 35-537 E111D) with D77E, Q238H
How it was run: as §1

AtPPO1 K281N = target: T4, AtPPO1 K281N (Arabidopsis thaliana, UniProt P55826, K281N)
T4 construct: expressed in transfected cells; host or cells: E. coli BL21(DE3) hemG (hemG replaced by CmR), pET24a plasmid
T4 sequence (P55826 35-537 K281N): T1 sequence (P55826 35-537 E111D) with D77E, K247N
How it was run: as §1

Row | SMILES | inhibition at 6.25 ppm (AtPPO1 E111D) [%] | inhibition at 6.25 ppm (AtPPO1 Y362F) [%] | inhibition at 6.25 ppm (AtPPO1 Q272H) [%] | inhibition at 6.25 ppm (AtPPO1 K281N) [%] | inhibition at 0.78 ppm (AtPPO1 E111D) [%] | inhibition at 0.78 ppm (AtPPO1 Y362F) [%] | inhibition at 0.78 ppm (AtPPO1 Q272H) [%] | inhibition at 0.78 ppm (AtPPO1 K281N) [%]
1 | CC(C)N(C)S(=O)(=O)NC(=O)c1cc(-n2c(=O)cc(C(F)(F)F)n(C)c2=O)c(F)cc1Cl [Herbicide E, saflufenacil] | 69 | 43 | 64 | 56 | – | – | – | –
2 | C#CCN1C(=O)C(F)(F)Oc2cc(F)c(-n3c(=O)n(C)c(=S)n(C)c3=O)cc21 [Herbicide B, trifludimoxazin] | – | – | – | – | 23 | 34 | 27 | 39
3 | CCOC(=O)[C@]1(C)CC(c2cc(-n3c(=O)n(C)c(=S)n(C)c3=O)c(F)cc2Cl)=NO1 [Herbicide D, ethyl (5S)-3-[2-chloro-5-(3,5-dimethyl-2,6-dioxo-4-thioxo-1,3,5-triazinan-1-yl)-4-fluoro-phenyl]-5-methyl-4H-isoxazole-5-carboxylate] | 30 | 13 | 28 | 37 | – | – | – | –
